Series [1] has as its system hGBM2 precursors (WHO grade IV GBM, giant cell variant). Nature of the series: Human glioblastoma precursor EC50 (hGBM2). The series is classed as cell-based.
Series [2] deals with murine neural precursor cells (neurosphere cultures). Nature of the series: HTS of LOPAC library against secondary neurosphere cultures, MTT proliferation assay at 3 μM, day 7 (z score, P value). The series is classed as cell-based, mouse.
Series [3] deals with neural precursors derived from human fetal CNS tissue (hFetal). The series can be described thus: Human fetal neural precursor EC50. The series is classed as cell-based.
The test system of series [4] is Ptch1+/− Trp53−/− medulloblastoma neurosphere cultures. Nature of the series: Tumor sphere MTT proliferation EC50. As to conditions: cultures derived from mouse cerebellar tumor samples; read-out: Ptch1+/− Trp53−/− neurosphere EC50. The format is cell-based, mouse. An excerpt:
(§1) Astrocyte Screen and Neurosphere Selectivity Assessment. […] Murine Medulloblastoma Generation and Culture. […] Flow Cytometry. […] Results

In series [5] the test system is NSC fraction of neurosphere cultures. As to conditions: 7 day pretreatment at estimated EC75 (apomorphine EC50); 2,000 or 1,000 cells.
Series [6] deals with nestin expression in NPCs. Nature of the series: Flow cytometric analysis of nestin in NPCs. The format is cell-based, mouse.
Procedure: (d) Flow cytometric analysis of the neural precursor marker nestin in NPCs after 2 d of treatment with ifenprodil (5 μM) or vehicle.
The test system of series [7] is hGBM1 precursors (WHO grade IV GBM). The series can be described thus: Human glioblastoma precursor EC50 (hGBM1). The series is classed as cell-based.
The subject of series [8] is mouse NSC neurosphere cultures. Nature of the series: Dose-response curves and EC50, neurosphere MTT proliferation, 7 days. The series is classed as cell-based.
Series [9] deals with ptc1+/− medulloblastoma precursor cells (neurosphere cultures). Nature of the series: Medulloblastoma tumor sphere MTT proliferation EC50. The series is classed as cell-based, mouse.
Source text: as §1

For series [10], the system named is ptc1+/− tumor cell growth. As to conditions: cited from earlier work.
In the next series the test system is NPC colony formation. The series can be described thus: Inhibition of colony formation by bromocriptine with and without (±)-sulpiride. The series is classed as cell-based, mouse.
The conditions of series [11]: cited from earlier work.
In series [12] the test system is medulloblastoma formation. As to conditions: mice; cited from earlier work.
Where [13] appears, read: Table 8, read-out: Neurosphere EC50.
Setting [14] is: cultures derived from mouse cerebellar tumor samples, read-out: Ptch1+/− neurosphere EC50.
Where [15] appears, read: LOPAC primary screen, neurosphere MTT proliferation, 3 μM, day 7.
The mark [16] stands for this setting: yes/no: significantly inhibited neurosphere proliferation (P<0.01) in the primary screen.
Setting [17] is: LOPAC library screen, 3 μM, MTT, secondary neurosphere cultures, day 7.
The mark [18] stands for this setting: 168 h, normal mouse neurosphere cultures, MTT, 7 days, read-out: Neurosphere EC50.
Setting [19] is: Mus musculus, read-out: EC 50% Neurosphere, Table 5.
Where [20] appears, read: Mus musculus, Table 8, read-out: Neurosphere EC50.
Setting [21] is: Mus musculus, ptc1+/− medulloblastoma derived neurospheres, read-out: Medulloblastoma Neurosphere EC50.

Where two headings read alike, the source gives them in different places.

Source text for NPC colony formation: (e) Inhibition of colony formation by bromocriptine in cultures with and without (±)-sulpiride supplementation. Normalized mean and s.e.m. values of three independent triplicate cultures are shown. […] Scale bars, 500 mm.

As for `Nc1ccc(CCN2CCN(c3cccc(C(F)(F)F)c3)CC2)cc1` [PAPP (14), p-aminophenethyl-m-trifluoromethylphenyl piperazine], the EC50 in [1] turned out to be 310 nM; in series [3], 220 nM; in series [4] it was 97 nM; in [7] it was 1870 nM; in series [8] (setting [13]), 31 nM; in series [8] (normal mouse neurosphere cultures, MTT, 7 days, read-out: Neurosphere EC50), 31 nM. In addition, the EC50 in series [8] (read-out: EC 50% Neurosphere, Table 5) is 31 nM; in [9] (setting [14]), 169 nM; in series [9] (ptc1+/− medulloblastoma derived neurospheres, read-out: Medulloblastoma Neurosphere EC50), 169 nM. In addition, in [2], the Activity entry is “yes”. For the same compound, the “Z Score” value in series [2] was −10.73. In series [2], this compound gave a Z score of −10.728. Moreover, the “secondary neurosphere formation upon re-culture in the absence of drug (replating efficiency)” value in series [5] is listed as “reduction in replating efficiency”. For the same compound, the “expression of the immature NPC marker nestin” value in series [6] was “substantially decreased”.
Take `CC1=C2C[C@H]3[C@@H](CC=C4C[C@@H](O)CC[C@@]43C)[C@@H]2CC[C@]12O[C@@H]1C[C@H](C)CN[C@H]1[C@H]2C` [Cyclopamine (16), Cyclopamine]: in [10], the “reported concentration for inhibition of ptc1+/− tumor cell growth in vitro” value is 5 µM. For the same compound, the EC50 in series [9] (Mus musculus, read-out: Ptch1+/− neurosphere EC50) worked out at 1000 nM.
For the compound `CCN1CCCC1CNC(=O)c1cc(S(N)(=O)=O)ccc1OC` (racemic) [(±)-sulpride, reference compound], in series [2] (setting [15]), the Z score was −0.284. The Activity result in [2] (setting [16]) is “no”. For the same compound, in the series on NPC colony formation (colony formation and MTT values), the “rescue of the inhibitory effects of bromocriptine” value was “able to competitively rescue the inhibitory effects”.
For the compound `CC(C)C[C@H]1C(=O)N2CCC[C@H]2[C@]2(O)O[C@](NC(=O)[C@@H]3C=C4c5cccc6[nH]c(Br)c(c56)C[C@H]4N(C)C3)(C(C)C)C(=O)N12` [(+)-Bromocripline (18), (+)-Bromocripline], the EC50 came to 1190 nM in [8] (setting [13]); 2500 nM in the series with NPC colony formation (with (±)-sulpiride supplementation, read-out: EC50 of inhibition of colony formation, with sulpiride); 1200 nM in the series with NPC colony formation (without sulpiride, read-out: EC50 of inhibition of colony formation, without sulpiride).
Turning to `CC(C(O)c1ccc(O)cc1)N1CCC(Cc2ccccc2)CC1` (stereo not drawn) [Ifenprodil (9), Ifenprodil], the EC50 was 206 nM in [1] (Homo sapiens); 420 nM in series [3]; 807 nM in series [4]; 1990 nM in series [7] (Homo sapiens); 616 nM in series [8] (setting [18]); 616 nM in series [8] (setting [19]). Further, the EC50 was determined as 616 nM in [8] (setting [20]), 451 nM in [9] (setting [21]) and 451 nM in [9] (setting [14]). Also, the “Z Score” value in series [2] (setting [17]) is listed as −8.904. Further, the Z score in series [2] (setting [15]) is given as −8.904. Further, the Activity entry in [2] (setting [16]) is reported as “yes”. For the same compound, the nestin negative cells in series [6] (2 d treatment, 5 μM, vehicle 20%) stood at 63%. Moreover, the “expression of the immature NPC marker nestin” value in series [6] (treatment for 2 d) is recorded as “substantially decreased”.
In the case of `CN1CCc2cccc3c2[C@H]1Cc1ccc(O)c(O)c1-3` [(R)-(−)-Apomorphine (6), (R)-(−)-Apomorphine], the EC50 came out at 310 nM in series [1] (Homo sapiens); 14600 nM in series [7] (Homo sapiens); 350 nM in series [8] (setting [18]); 350 nM in series [8] (setting [19]); 350 nM in series [8] (setting [20]); 168 nM in series [9] (setting [21]). Moreover, the EC50 in series [9] (setting [14]) is 168 nM. In addition, the Activity result in [2] was “yes”. Besides, in series [2] (setting [17]), the “Z Score” value is listed as −11.27. In addition, the Z score in series [2] (setting [15]) is −11.274. Besides, the “Effective in vivo concentrations” value in series [11] was 6 to 7 µM.
As to `O=C(Nc1ccccc1)C12CC1/C(=N\O)c1ccccc1O2` (stereo not drawn) [PHCCC], the “medulloblastoma formation in vivo” value in series [12] is reported as “attenuate medulloblastoma formation”.

The values are drawn from US8058243B2, “Method for treating a brain cancer with ifenprodil” (HSC Research and Development Limited Partnership, priority 2006, dated 2011).
